Test results: paper PMC6881254, “ABCA1 transporter reduces amphotericin B cytotoxicity in mammalian cells” (Cellular and Molecular Life Sciences: CMLS, 2019)
≈ marks a conversion by molar mass, not a printed value. Like-named read-outs stand apart in the source and are kept apart here.

What was measured:
[1] = tested on: CHO-K1 wild-type cells; assay: AmB cytotoxicity, MTT assay in CHO-K1 wild-type cells; format: cell-based, Chinese hamster; conditions: Cricetulus griseus, AmB 3 h, read-out: IC50 (cell viability, MTT)
Experimental: (§1) A1G and MMG cell lines, mock and GW3965-treated macrophages were seeded in triplicate in 96-well plates at 1 × 10^4 cells/well for CHO cells and 2 × 10^4 cells for Raw 264.7 macrophages and incubated in complete Ham’s F-12 medium at 37 °C, 5% CO2 overnight to allow the cells to attach to the plate. The medium was then removed, AmB was added in complete Ham’s F-12 medium (or in ΔFBS medium, see next paragraph) in different concentrations (from 0 to 40 µg/mL) and cells were incubated for 3 h at 37 °C. For probucol treatment, the cells were preincubated with 10 µM probucol in complete Ham’s F-12 medium at 37 °C, 5% CO2 for 2 h. Then, the medium was removed and AmB was added in different concentrations (from 0 to 40 µg/mL) in complete Ham’s F-12 medium containing 10 µM probucol and cells were incubated for additional 3 h at 37 °C, 5% CO2. After incubation, the medium was removed and 3-[4,5-dimethylthiazol-2-yl]-2,5-diphenyltetrazolium bromide (MTT, 0.5 mg/mL, Sigma-Aldrich) in complete Ham’s F-12 was added. […] Plates were shaken for 10 min before reading them on a UVM 340 microplate reader (Biogenet) at 550 nm with a reference wavelength of 630 nm. […]
(§2) All mathematical and statistical analysis was performed using the GraphPad Prism 7 software package (GraphPad). […] The statistical significance of differences was assessed either by two-way ANOVA or by t test. […]

[2] = tested on: MMG cells; assay: [3H]-cholesterol efflux to AmB as acceptor in MMG cells; format: cell-based, Chinese hamster; conditions: 20 µg/mL AmB
Experimental: (§3) The [^3H]-cholesterol efflux protocol was adapted from Yang and Gelissen. Briefly, A1G and MMG cells were seeded in 0.5 mL of complete Ham’s F12 medium at 5 × 10^4 cells/well in 24-well plates and grown overnight at 37 °C, 5% CO2. The next day, the cell culture medium was replaced either with 0.25 mL of complete Ham’s F12 medium or complete Ham’s F12 medium containing 1 µCi/mL of [^3H]-cholesterol (Perkin Elmer) and incubated for 24 h at 37 °C, 5% CO2. On the last day, the cell medium was removed, and the cells were washed three times with PBS buffer (with intermediate 15 min incubation in PBS buffer). Afterwards, cells were incubated for 3 h in 0.25 mL of complete Ham’s F12 medium containing (or not, in controls) 20 µg/mL of AmB at 37 °C, 5% CO2. […] One hundred fifty microliters of each of cell medium and cell lysate were added to 5 mL of Ecolite + scintillation cocktail (MPBIO) and radioactivity was counted in CPM mode using a Beckman LS analyzer (Beckman Coulter). After subtraction of background radioactivity, the percentage of [^3H]-cholesterol efflux was calculated according to the formula: (CPM in media)/[(CPM in media) + (CPM in cells)].

[3] = tested on: Raw 264.7 macrophages; assay: AmB cytotoxicity, MTT assay in Raw 264.7 macrophages; format: cell-based, murine; conditions: Mus musculus, RAW264.7, AmB 3 h, read-out: IC50 (cell viability, MTT)
Experimental: as §1, with “CO2.” for “CO2. After incubation, the medium was removed and 3-[4,5-dimethylthiazol-2-yl]-2,5-diphenyltetrazolium bromide (MTT, 0.5 mg/mL, Sigma-Aldrich) in complete Ham’s F-12 was added.”
as §2
Cells were exposed to increased concentrations of AmB, ranging from 0 to 40 µg/mL, for 3 h and then the viability was analyzed by MTT assay. […]

[4] = tested on: A1G cells; assay: [3H]-cholesterol efflux to AmB as acceptor in A1G cells; format: cell-based, Chinese hamster; conditions: 20 µg/mL AmB
Experimental: as §3

[5] = tested on: MMG cells; assay: AmB cytotoxicity, MTT assay in MMG cells (CHO-K1 stably expressing non-active ABCA1MM-GFP); format: cell-based, Chinese hamster; conditions: Cricetulus griseus, ± SE
Experimental: (§4) A1G and MMG cell lines, mock and GW3965-treated macrophages were seeded in triplicate in 96-well plates at 1 × 10^4 cells/well for CHO cells and 2 × 10^4 cells for Raw 264.7 macrophages and incubated in complete Ham’s F-12 medium at 37 °C, 5% CO2 overnight to allow the cells to attach to the plate. […] For probucol treatment, the cells were preincubated with 10 µM probucol in complete Ham’s F-12 medium at 37 °C, 5% CO2 for 2 h. Then, the medium was removed and AmB was added in different concentrations (from 0 to 40 µg/mL) in complete Ham’s F-12 medium containing 10 µM probucol and cells were incubated for additional 3 h at 37 °C, 5% CO2. After incubation, the medium was removed and 3-[4,5-dimethylthiazol-2-yl]-2,5-diphenyltetrazolium bromide (MTT, 0.5 mg/mL, Sigma-Aldrich) in complete Ham’s F-12 was added. Cells were incubated for 4 h at 37 °C, then MTT was removed carefully and the formazan crystals were dissolved in DMSO. Plates were shaken for 10 min before reading them on a UVM 340 microplate reader (Biogenet) at 550 nm with a reference wavelength of 630 nm. The cell viability was estimated as the percentage of the control, which was the cells untreated with any agents (100%).
(§5) To lower the cholesterol content in the cells, A1G and MMG cell lines were seeded at either 1 × 10^4 cells/well in a 96-well plate (cytotoxicity) or 4 × 10^5 cells/well (cholesterol content) in a 6-well plate in complete Ham’s F-12 medium for 8 h to allow the cells to attach to the plate. Cells were then washed three times with Ham’s F-12 medium supplemented with delipidated serum (Biowest) (ΔFBS medium) and incubated with 10 µM zaragozic acid (ZA) in ΔFBS medium for 16 h at 37 °C, 5% CO2. To reload the plasma membrane with cholesterol, cells after ZA treatment were washed three times with ΔFBS medium and incubated with 100 µM cholesterol–1 mM methyl-β-cyclodextrin complex in ΔFBS medium for 30 min at 37 °C, 5% CO2. As a control, cells were incubated for 16 h with only ΔFBS medium at 37 °C, 5% CO2. After treatment, cells were either processed with AmB cytotoxicity MTT assay or lysed as described for cholesterol content measurement.
(§6) All mathematical and statistical analysis was performed using the GraphPad Prism 7 software package (GraphPad). For IC50 value determination, a nonlinear fit (inhibitor vs. normalized response with variable slope) of cell viability in the function of AmB decreased concentrations was applied. The statistical significance of differences was assessed either by two-way ANOVA or by t test. For all tests, the significance level (alpha, α) was set to 0.05. Significant differences are indicated in individual graphs with p values as follows: ****p < 0.0001, ***p < 0.001, **p < 0.01, *p < […]. If the differences were not significant, nothing is stated. For each result, an appropriate description of the analysis appears in the figure legend.

[6] = tested on: A1G cells; assay: AmB cytotoxicity, MTT assay in A1G cells (CHO-K1 stably expressing ABCA1-GFP); format: cell-based, Chinese hamster; conditions: Cricetulus griseus, ± SE
Experimental: as §4, §5, §6

[7] = tested on: A1G and MMG cell lines; assay: Total cellular cholesterol content (Amplex Red) after zaragozic acid treatment; format: cell-based, Chinese hamster; conditions: 10 µM ZA in ΔFBS medium 16 h, compared with non-ZA-treated cells cultured in ΔFBS medium
Experimental: To lower the cholesterol content in the cells, A1G and MMG cell lines were seeded at either 1 × 10^4 cells/well in a 96-well plate (cytotoxicity) or 4 × 10^5 cells/well (cholesterol content) in a 6-well plate in complete Ham’s F-12 medium for 8 h to allow the cells to attach to the plate. Cells were then washed three times with Ham’s F-12 medium supplemented with delipidated serum (Biowest) (ΔFBS medium) and incubated with 10 µM zaragozic acid (ZA) in ΔFBS medium for 16 h at 37 °C, 5% CO2. […]
The cells were harvested, washed three times with PBS and lysed with RIPA buffer (25 mM HEPES, pH 7.4, 150 mM NaCl, 1% NP40, 10 mM MgCl2, 1 mM EDTA, 2% glycerol, protease and phosphatase inhibitor cocktail) for 30 min on ice. […] Total cellular cholesterol level was determined enzymatically by cholesterol oxidase using the Amplex Red Cholesterol Assay Kit (Thermo Fisher Scientific) according to the manufacturer’s recommendations. […] The protein concentration was measured by BCA Assay Kit (Sigma-Aldrich). […] Fluorescence was measured using excitation at 560 nm and emission detection at 590 nm with a Cary Eclipse fluorescence microplate reader (Agilent Technologies). […] The final cholesterol content was calculated in ng of cholesterol per µg of protein.

| Compound | IC50 [1] [µg/mL] | [3H]-cholesterol efflux to AmB [2] [%] | IC50 ([3]; Raw 264.7 cells induced with 1 µM GW3965 for 24 h (ABCA1 expression)) [µg/mL] | IC50 ([3]; mock (DMSO) control Raw 264.7 cells) [µg/mL] | [3H]-cholesterol efflux to AmB [4] [%] | IC50 ([5]; CHO-K1, 3 h, MMG, complete Ham's F12 medium, AmB 3 h) [µg/mL] | IC50 ([5]; CHO-K1, 6 h, MMG, complete Ham's F12 medium, 6 h AmB) [µg/mL] | IC50 ([5]; CHO-K1, 16 h, MMG, complete Ham's F12 medium, 16 h AmB) [µg/mL] | IC50 ([5]; CHO-K1, 16 h, MMG, ΔFBS medium + 10 µM zaragozic acid (ZA) 16 h) [µg/mL] | IC50 ([5]; CHO-K1, MMG, complete Ham's F12 + 10 µM probucol (2 h pretreatment), AmB 3 h) [µg/mL] | IC50 ([5]; CHO-K1, MMG, ΔFBS medium (delipidated serum)) [µg/mL] | IC50 ([5]; CHO-K1, MMG, ΔFBS medium + ZA, reloaded with cholesterol (MβCD complex)) [µg/mL] | IC50 ([6]; CHO-K1, 3 h, A1G, complete Ham's F12 medium, AmB 3 h) [µg/mL] | IC50 ([6]; CHO-K1, 6 h, A1G, complete Ham's F12 medium, 6 h AmB) [µg/mL] | IC50 ([6]; CHO-K1, 16 h, A1G, complete Ham's F12 medium, 16 h AmB) [µg/mL] | IC50 ([6]; CHO-K1, 16 h, A1G, ΔFBS medium + 10 µM zaragozic acid (ZA) 16 h) [µg/mL] | IC50 ([6]; CHO-K1, A1G, complete Ham's F12 + 10 µM probucol (2 h pretreatment), AmB 3 h) [µg/mL] | IC50 ([6]; CHO-K1, A1G, ΔFBS medium (delipidated serum)) [µg/mL] | IC50 ([6]; CHO-K1, A1G, ΔFBS medium + ZA, reloaded with cholesterol (MβCD complex)) [µg/mL] | decrease of total cellular cholesterol content [7] |
| --- | --- | --- | --- | --- | --- | --- | --- | --- | --- | --- | --- | --- | --- | --- | --- | --- | --- | --- | --- | --- |
| C[C@@H]1[C@H](O)[C@@H](C)/C=C/C=C/C=C/C=C/C=C/C=C/C=C/[C@H](O[C@@H]2O[C@H](C)[C@@H](O)[C@H](N)[C@@H]2O)C[C@@H]2O[C@](O)(C[C@@H](O)C[C@@H](O)[C@H](O)CC[C@@H](O)C[C@@H](O)CC(=O)O[C@H]1C)C[C@H](O)[C@H]2C(=O)O [AmB, Amphotericin B] | 16.8 (≈ 18.1 µM) | 0.3 | 14.6 (≈ 15.7 µM) | 6.18 (≈ 6.69 µM) | 5.1 | 13.1 ± 1 (≈ 14.2 µM) | 10.6 ± 0.48 (≈ 11.5 µM) | 6.65 ± 0.28 (≈ 7.2 µM) | 10 ± 0.67 | 9.47 ± 0.31 | 10.2 ± 0.42 (≈ 11 µM) | 6.42 ± 0.38 | 39.2 ± 4.49 (≈ 42.4 µM) | 30.9 ± 1.66 (≈ 33.5 µM) | 11.4 ± 0.35 (≈ 12.4 µM) | 9.75 ± 0.53 | 14.4 ± 0.36 | 21.2 ± 1.09 (≈ 22.9 µM) | 18.9 ± 0.77 |  |
| C=C(CC[C@]12O[C@H](C(=O)O)[C@@](O)(C(=O)O)[C@](C(=O)O)(O1)[C@H](OC(=O)/C=C/[C@@H](C)C[C@@H](C)CC)[C@H]2O)[C@@H](OC(C)=O)[C@H](C)Cc1ccccc1 [zaragozic acid] |  |  |  |  |  |  |  |  |  |  |  |  |  |  |  |  |  |  |  | approximately 50% |
